Consider 14 molecules from patent US4772586A, “Novel derivatives of arginine vasopressin antagonists” (Medical College of Ohio, priority 1986, dated 1988).

Assay [1] deals with ethanol-anesthesized water-loaded rats. Briefly: Activity as antidiuretic agonists, intravenous injection. The conditions noted are these: for Agonistic Activities ADH: Table 1, antidiuretic agonism, i.v., ^+ = weak partial agonistic activity not clearly related to dose. It is filed as in vivo. As to the method: Activity as antidiuretic agonists was determined by intravenous injection of the compounds being evaluated in ethanol-anesthesized water-loaded rats in accordance with Sawyer, Endocrinology, vol. 63 (1958) at 694. Antagonism of the antidiuretic response to subsequent injections of arginine vasopressin was tested by the method of Sawyer et al., Science, vol. 212 (1981) at 49.

The subject of a further assay is vasopressor response. As to the kind of experiment: Vasopressor (VP) agonistic activity. It is filed as in vivo. The conditions noted are these: Table 1; vasopressor agonism; ^+ = weak partial agonistic activity not clearly related to dose.
Assay [2] has as its system vasopressor response to arginine vasopressin. Briefly: Antagonism to the vasopressor response (Anti-VP). It is filed as in vivo. An outline of the steps: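 In vivo antagonism of arginine vasopressin pressor response per Dyckes et al. Effective dose (nmol/kg) is the antagonist dose making the response to 2x agonist units, injected 20 min later, equal that to 1x units. pA2 is the negative log of effective dose divided by 67 ml/kg distribution volume.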

Assay [3] relates to antidiuretic response to arginine vasopressin. As to the kind of experiment: Antagonism of the antidiuretic response to arginine vasopressin (Anti-ADH). It is filed as in vivo, rats. The following applies: for Anti-ADH pA2: Table 1, estimated in vivo pA2 = negative log of effective dose divided by volume of distribution (67 ml/kg). An outline of the steps:
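Compounds were given intravenously to ethanol-anesthetized, water-loaded rats, followed by arginine vasopressin challenge. Effective dose (nmol/kg) is the antagonist dose that reduces the response to 2x units of agonist, given 20 min later, to the response to 1x units. pA2 is the negative log of effective dose divided by an estimated 67 ml/kg distribution volume.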

*1 amine or outer side, *2 acyl side, *3 side chain or, on linkers, in order; H or OH if unused. Where a SMILES comes first, the peptide text is derived from it. Bridges are numbered along the chain shown (N, C = ends). Where no end group is shown, it is not given here. [ ]: non-standard residue; d: D form. X1 = O=C(CC1(S[*:2])CCCCC1)[*:1]; Sar = CNCC(=O)O

As to “9-desglycinamide-arginine vasopressin (CYFQNCPR; disulfide 1-6 (inferred); ends not checked; UniProt P01185 20-27, looked up, fragment) [desGly^9 (NH2)AVP]”, the “Agonistic Activities ADH” value in assay [1] came to 5.6 ± 1.1 units/mg. Besides, the “Agonistic Activities VP” value in the assay with vasopressor response is reported as ~ 0.02 units/mg.
For the molecule “9-desglycine-argoinine vasopressin (CYFQNCPR; disulfide 1-6 (inferred); ends not checked; UniProt P01185 20-27, looked up, fragment) [desGly^9 AVP]”, in assay [2] (Table 1, effective dose), the “Anti-VP ED” value was 68 ± 16 nmol/kg. Moreover, the “Anti-VP pA2” value in assay [2] (Table 1, estimated in vivo pA2) was 6.09 ± 0.10. The “Agonistic Activities ADH” value in assay [1] is 164 ± 4 units/mg. Besides, in the assay with vasopressor response, the “Agonistic Activities VP” value was below 0.05 units/mg.
In the case of `NC(=O)CC[C@@H]1NC(=O)[C@H](Cc2ccccc2)NC(=O)[C@H](Cc2ccc(O)cc2)NC(=O)[C@@H](N)CSSC[C@@H](C(=O)N2CCC[C@H]2C(=O)N[C@@H](CCCN=C(N)N)C(=O)NCC(N)=O)NC(=O)[C@H](CC(N)=O)NC1=O` [AVP, arginine vasopressin], in assay [1], the “Agonistic Activities ADH” value is 330 ± 23 units/mg. In addition, the “Agonistic Activities VP” value in the assay with vasopressor response is 382 ± 5 units/mg.
For the molecule `CNC(=O)CN(C)C(=O)[C@H](CCCNC(=N)N)NC(=O)[C@@H]1CCCN1C(=O)[C@@H]1CSSC2(CCCCC2)CC(=O)N[C@@H](Cc2ccc(OC)cc2)C(=O)N[C@@H](Cc2ccccc2)C(=O)N[C@@H](CCC(N)=O)C(=O)N[C@@H](CC(N)=O)C(=O)N1` [d(CH2)5 [Tyr(Me)^2, Sar(NHMe)^9]AVP, [1-(beta-mercapto-beta,beta-cyclopentamethylenepropionic acid), 2-O-methyltyrosine, 9-sarcosine-N-methylamide]-arginine vasopressin] (Y(Me)FQNCPR[Sar]-NHMe; linker N-5 via X1), the “Anti-ADH Potency pA2” value in assay [3] (Table 4, estimated in vivo pA2) was ~ 5.5. In addition, the “Anti-VP Potency pA2” value in assay [2] (Table 4, estimated in vivo pA2, ^+ = mixed) was 8.31 ± 0.03.
As to `CC(C)[C@@H]1NC(=O)[C@H](Cc2ccccc2)NC(=O)[C@@H](Cc2ccccc2)NC(=O)CC2(CCCCC2)SSC[C@@H](C(=O)N2CCC[C@H]2C(=O)N[C@@H](CCCNC(=N)N)C(=O)NCC(N)=O)NC(=O)[C@H](CC(N)=O)NC1=O` [d(CH2) 5 [D-Phe^2]VAVP, [1-(beta-mercapto-beta,beta-cyclopentamethylenepropionic acid), 2-D-phenylalanine, 4-valine]-arginine vasopressin, reference compound] ([dF]FVNCPRG-NH2; linker N-5 via X1), in assay [3], the “Anti-ADH pA2” value is recorded as 8.06 ± 0.09. Also, the “Anti-VP pA2” value in assay [2] (Table 1, estimated in vivo pA2) was 8.06 ± 0.03.
As to `CC(C)[C@@H]1NC(=O)[C@H](Cc2ccccc2)NC(=O)[C@@H](Cc2ccccc2)NC(=O)CC2(CCCCC2)SSC[C@@H](C(=O)N2CCC[C@H]2C(=O)N[C@@H](CCCNC(=N)N)C(=O)O)NC(=O)[C@H](CC(N)=O)NC1=O` [desGly(NH2)^9 d(CH2)5 [D-Phe^2]VAVP, [1-(beta-mercapto-beta,beta-cyclopentamethylenepropionic acid), 2-D-phenylalanine, 4-valine, 9-desglycinamide]-arginine vasopressin] ([dF]FVNCPR-OH; linker N-5 via X1), in assay [3], the “Anti-ADH pA2” value was 7.75 ± 0.11. The “Anti-VP pA2” value in assay [2] (Table 1, estimated in vivo pA2) was 7.93 ± 0.05.
`CCOc1ccc(C[C@H]2NC(=O)CC3(CCCCC3)SSC[C@@H](C(=O)N3CCC[C@H]3C(=O)N[C@@H](CCCNC(=N)N)C(=O)O)NC(=O)[C@H](CC(N)=O)NC(=O)[C@H](C(C)C)NC(=O)[C@H](Cc3ccccc3)NC2=O)cc1` [desGly(NH2)^9 d(CH2)5 [D-Tyr(Et)^2]VAVP, [1-(beta-mercapto-beta,beta-cyclopentamethylenepropionic acid), 2-D-(O-ethyl)tyrosine, 4-valine, 9-desglycinamide]-arginine vasopressin] ([dY](Et)FVNCPR-OH; linker N-5 via X1): the “Anti-ADH pA2” value in assay [3] is given as 7.78 ± 0.03. Also, the “Anti-VP pA2” value in assay [2] (Table 1, estimated in vivo pA2) is 7.77 ± 0.02.
As to `COc1ccc(C[C@@H]2NC(=O)CC3(CCCCC3)SSC[C@@H](C(=O)N3CCC[C@H]3C(=O)N[C@@H](CCCNC(=N)N)C(=O)O)NC(=O)[C@H](CC(N)=O)NC(=O)[C@H](CCC(N)=O)NC(=O)[C@H](Cc3ccccc3)NC2=O)cc1` [desGly(NH2)^9 d(CH2)5 [Tyr(Me)^2]AVP] (Y(Me)FQNCPR-OH; linker N-5 via X1), the “Anti-ADH pA2” value in assay [3] is reported as ~ 5.4. In assay [2] (Table 1, estimated in vivo pA2), the “Anti-VP pA2” value is given as 8.46 ± 0.05.
Consider `CC[C@H](C)[C@@H]1NC(=O)[C@H](Cc2ccccc2)NC(=O)[C@@H](Cc2ccccc2)NC(=O)CC2(CCCCC2)SSC[C@@H](C(=O)N2CCC[C@H]2C(=O)N[C@@H](CCCNC(=N)N)C(N)=O)NC(=O)[C@H](CC(N)=O)NC1=O` [desGly^9 d(CH2)5 [D-Phe^2,Ile^ 4]AVP, [1-(beta-mercapto-beta,beta-cyclopentamethylenepropionic acid), 2-D-phenylalanine, 4-isoleucine, 9-desglycine]-arginine vasopressin] ([dF]FINCPR-NH2; linker N-5 via X1), for which the “Anti-ADH pA2” value in assay [3] was 8.05 ± 0.09. In addition, the “Anti-VP pA2” value in assay [2] (Table 1, estimated in vivo pA2) is 7.84 ± 0.03.
For `CC(C)[C@@H]1NC(=O)[C@H](Cc2ccccc2)NC(=O)[C@@H](Cc2ccccc2)NC(=O)CC2(CCCCC2)SSC[C@@H](C(=O)N2CCC[C@H]2C(=O)N[C@@H](CCCNC(=N)N)C(N)=O)NC(=O)[C@H](CC(N)=O)NC1=O` [desGly^9 d(CH2)5 [D-Phe^2]VAVP, [1-(beta-mercapto-beta,beta-cyclopentamethylenepropionic acid), 2-D-phenylalanine, 4-valine, 9-desglycine]-arginine vasopressin] ([dF]FVNCPR-NH2; linker N-5 via X1) the same measures were 8.09 ± 0.08 and 8.15 ± 0.03.
Turning to `CCOc1ccc(C[C@H]2NC(=O)CC3(CCCCC3)SSC[C@@H](C(=O)N3CCC[C@H]3C(=O)N[C@@H](CCCNC(=N)N)C(N)=O)NC(=O)[C@H](CC(N)=O)NC(=O)[C@H](C(C)C)NC(=O)[C@H](Cc3ccccc3)NC2=O)cc1` [desGly^9 d(CH2)5 [D-Tyr(Et)^2]VAVP, [1-(beta-mercapto-beta,beta-cyclopentamethylenepropionic acid), 2-D-(O-ethyl)tyrosine, 4-valine, 9-desglycine]-arginine vasopressin] ([dY](Et)FVNCPR-NH2; linker N-5 via X1), in assay [3], the “Anti-ADH pA2” value is 7.69 ± 0.08. For the same molecule, the “Anti-VP pA2” value in assay [2] (Table 1, estimated in vivo pA2) is reported as 8.17 ± 0.04.
Turning to `CCOc1ccc(C[C@@H]2NC(=O)CC3(CCCCC3)SSC[C@@H](C(=O)N3CCC[C@H]3C(=O)N[C@@H](CCCNC(=N)N)C(N)=O)NC(=O)[C@H](CC(N)=O)NC(=O)[C@H](C(C)C)NC(=O)[C@H](Cc3ccccc3)NC2=O)cc1` [desGly^9 d(CH2)5 [Tyr(Et)^2]VAVP, [1-(beta-mercapto-beta,beta-cyclopentamethylenepropionic acid), 2-(O-ethyl)tyrosine, 4-valine, 9-desglycine]-arginine vasopressin] (Y(Et)FVNCPR-NH2; linker N-5 via X1), in assay [3], the “Anti-ADH pA2” value is on record as 7.89 ± 0.09. Besides, the “Anti-VP pA2” value in assay [2] (Table 1, estimated in vivo pA2) is recorded as 8.18 ± 0.02.
For `COc1ccc(C[C@@H]2NC(=O)CC3(CCCCC3)SSC[C@@H](C(=O)N3CCC[C@H]3C(=O)N[C@@H](CCCNC(=N)N)C(N)=O)NC(=O)[C@H](CC(N)=O)NC(=O)[C@H](CCC(N)=O)NC(=O)[C@H](Cc3ccccc3)NC2=O)cc1` [desGly^9 d(CH2)5 [Tyr(Me)^2]AVP, [1-(beta-mercapto-beta,beta-cyclopentamethylenepropionic acid), 2-(O-methyl)tyrosine, 9-desglycine]-arginine vasopressin] (Y(Me)FQNCPR-NH2; linker N-5 via X1) the same measures were ~ 6.1 and 8.44 ± 0.10.
In the case of “deamido-arginine vasopressin (CYFQNCPRG-OH; disulfide 1-6 (inferred); ends not checked; UniProt P01185 20-28, looked up) [AVP-acid, purchased from Bachem, Inc; alternatively, vasopressinoic acid]”, in assay [1], the “Agonistic Activities ADH” value worked out at 4.7 ± 0.6 units/mg. The “antidiuretic character in vivo” value in assay [1] (Table 1 footnote b) was “antidiuretic agonist in vivo”. The “Agonistic Activities VP” value with vasopressor response is listed as below 0.03 units/mg.
